According to patent US20100204263A1, “METHOD OF TREATING MULTIDRUG RESISTANT CANCERS” (priority 2007, published 2010):
Read-outs that look alike come from different tables or passages of the source.

Experiments:
Pgp, MRP-1 or BCRP [1] = assay: Resistance Ratios in three pairs of parental and resistant cell lines; format: cell-based, human; settings: IC50 resistant / IC50 parental; HL60-HL60VCR, HL60-HL60ADR, 8226-8226/MR20
Method: The Resistance Ratios were calculated as IC50 of the resistant cell line/IC50 of the parental cell line.

[2] = system: HL60/VCR cells (Pgp positive); assay: Drug accumulation assay, HL60/VCR; format: cell-based, human
Method: (§1) Functional expression analyses of Pgp were performed on a BD FACSCalibur flow cytometer (Franklin Lakes, N.J.). […] Data analysis was performed using the Dako Cytomation Summit software, version 4.0 (Fort Collins, Colo.).

[3] = system: K562 (human leukemia) cell lines and a K562 cell line selected for resistance to daunorubicin; assay: MTS cell proliferation assay, K562 and K562 resistant cell lines; format: cell-based
Description: MTS assay is an assay in which the bioreduction of the MTS reagent (3-(4,5-dimethylthiazol-2-yl)-5-(3-carboxymethoxyphenyl)-2-(4-sulfophenyl)-2H-tetrazolium)) by cells is being measured to assess metabolic activity of cells is based on the ability of a mitochondrial dehydrogenase enzyme from viable cells to cleave the tetrazolium rings of the MTS and form formazan crystals which are largely impermeable to cell membranes, thus resulting in its accumulation within healthy cells. Solubilization of the cells by the addition of a detergent results in the liberation of the crystals which are solubilized. The number of surviving cells is directly proportional to the level of the formazan product created. The color can then be quantified using a simple colorimetric assay. The results can be read on a multiwell scanning spectrophotometer (ELISA reader).

[4] = system: pretreatment secondary AML patient cells; assay: Amonafide and daunorubicin efflux in cryopreserved cells of patients treated with amonafide+cytarabine; format: cell-based, human; settings: cells from 15 patients treated with amonafide+cytarabine
Method: Cryopreserved cells were tested for viability and samples with viabilities less than 40% were considered inevaluable and discarded.
To measure drug uptake, the substrates were incubated with cells in medium containing each drug alone, or in combination with the modulator at the desired final concentrations. Cells were then washed and resuspended in PBS, and placed on ice. Drug-associated fluorescence was measured by flow cytometry using a FacScan flow cytometer (Becton Dickinson Immunocytometry Systems, San Jose, Calif.) equipped in standard fashion with an Argon laser for 488 nm excitation and a 585/42 band-pass filter (FL2) or a 670 long-pass (FL3) filter for emission collection. Data were analyzed with WinList software (Verity Software House, Topsham, Me.).

[5] = system: 8226/MR20 cells (BCRP positive); assay: Drug accumulation assay, 8226/MR20; format: cell-based, human; settings: 8226/MR20 ± FTC
Method: Functional expression analyses of BCRP were performed on a BD FACSCalibur flow cytometer (Franklin Lakes, N.J.). […] Data analysis was performed using the Dako Cytomation Summit software, version 4.0 (Fort Collins, Colo.).

[6] = system: IGROV1-T8, a cell line selected for resistance to topotecan (increased BCRP expression); assay: cells; settings: Homo sapiens
Method: (§2) The T8 resistant cell line has been characterized with over-expression of the multidrug resistant protein BCRP (breast cancer resistance protein). Topotecan, which is a known substrate for BCRP, was used as a control.
(§3) Sulforhodamine-B (SRB) assay is performed to assess cell survival. SRB is a water-soluble dye that binds to the basic amino acids of the cellular proteins. Thus, colorimetric measurement of the bound dye provides an estimate of the total protein mass that is related to the cell number. The color can then be quantified using a simple colorimetric assay. The results can be read on a multiwell scanning spectrophotometer (ELISA reader).

Caco-2 cell monolayers [7] = settings: human, Caco-2, 120 min, 5 μM
Method: (§4) Caco-2 cell permeability studies were performed using Caco-2 cell monolayers grown on microporous membranes in multiwell insert systems. […] The samples were analyzed using LC/MS detection. […] This is the slope of the basolateral concentration versus time curve divided by the concentration of compound in the apical dosing chamber and the total area of the Caco-2 cell monolayer.

Caco-2 cell monolayers [8] = assay: Caco-2 cell monolayer permeability
Method: as §4

[9] = system: HL60 (human promyelocytic leukemia) cells; assay: WST-1 cell proliferation assay, HL60; format: cell-based; settings: HL-60, wild-type HL60, WST-1, read-out: IC50 HL60
Method: (§5) The HL60NCR resistant cell line has been characterized with over-expression of the multidrug resistant protein (MDR; p-glycoprotein). The over-expression ratio (level of MDR in resistant cell line over level of MDR in the parental cell line) is 8 fold with a 10 fold increase in pgp function. Pgp surface expression was measured by flow cytometry with the MRK16 antibody and Pgp function with the generic substrate, Rh123.
(§6) WST-1 is a water-soluble tetrazolium salt that can be used for cell proliferation or cell viability assays. The rate of WST-1 cleavage by mitochondrial dehydrogenases correlates with the number of viable cells in the culture. WST-1 is added directly to the cells ( 1/10th of the culture volume) and absorbance at 450 nm can be measured using an ELISA plate reader following a short incubation at 37° C.

[10] = system: HL60/ADR cells (MRP-1 positive); assay: Drug accumulation assay, HL60/ADR; format: cell-based, human
Method: Following uptake, the cells were washed with PBS and resuspended in fresh medium. An aliquot of cells from each sample was placed on ice for quantitation of baseline drug uptake. The remaining cells were incubated further and then resuspended in chilled fresh medium, and placed on ice for immediate flow cytometric analysis.
Functional expression analyses of MRP-1 were performed on a BD FACSCalibur flow cytometer (Franklin Lakes, N.J.). Cellular amonafide content was measured on the Cytopeia Influx flow cytometer (Seattle, Wash.). Data analysis was performed using the Dako Cytomation Summit software, version 4.0 (Fort Collins, Colo.).

[11] = system: 8226/MR20, a cell line selected for resistance to mitoxantrone (BCRP); assay: WST-1 cell proliferation assay, 8226/MR20
Method: The 8226/MR20 resistant cell line has been characterized with over-expression of the multidrug resistant protein (BCRP).
BCRP surface expression was measured by flow cytometry with the BXP21 antibody.
as §6

P-gp [12] = assay: in vitro; settings: human, MDCK-MDR1, efflux/influx ratio, Drug alone
Method: (§7) MDR1-MDCK are Madin Darby Canine Kidney cells transfected with the human multi-drug resistance gene. Confluent monolayers made from these cells can be used to access a test compound's potential role as a P-gp substrate. The assay set up is similar to the CaCo-2 assay.
(§8) The samples were analyzed using LC/MS detection.

[13] = system: HL60 cells (Pgp negative); assay: Drug accumulation assay, HL60; format: cell-based, human; settings: HL60, increasing concentrations of amonafide
Method: as §1

[14] = system: IGROV1 (human ovarian) cell line; assay: SRB cell proliferation assay, IGROV1; format: cell-based
Method: as §2, §3

P-gp [15] = assay: in vitro; settings: human
Method: as §4

[16] = system: MCF7 (human breast cancer) cell lines and a MCF7 cell line selected for resistance to doxorubicin; settings: clonogenic
Method: The MCF7 resistant cell line has been characterized with over-expression of the multidrug resistant protein (MDR; p-glycoprotein).
In the clonogenic assay cells are treated in vitro and then suspended in a soft agar/cell media mixture. The cells are allowed to grow in definable and distinct clumps of cells, referred to as clones, based upon the survival of the cells originally treated. After a defined time span the number of clones is then counted by microscope.

[17] = system: P388 (murine leukemia) cell lines and a P388 cell line selected for resistance to doxorubicin; settings: MTT
Description: The P388 resistant cell line has been characterized with over-expression of the multidrug resistant protein (MDR; p-glycoprotein).
MTT [3-(4,5-dimethylthiazol-2-yl)-2,5-diphenyltetrazolium bromide] assay, first described by Mosmann in 1983, is based on the ability of a mitochondrial dehydrogenase enzyme from viable cells to cleave the tetrazolium rings of the pale yellow MTT and form a dark blue formazan crystals which is largely impermeable to cell membranes, thus resulting in its accumulation within healthy cells. Solubilization of the cells by the addition of a detergent results in the liberation of the crystals which are solubilized. The number of surviving cells is directly proportional to the level of the formazan product created. The color can then be quantified using a simple colorimetric assay. The results can be read on a multiwell scanning spectrophotometer (ELISA reader).

[18] = system: HL60/VCR (HL60/MDR), a cell line selected for resistance to vincristine; assay: WST-1 cell proliferation assay, HL60/VCR
Method: as §5, §6

[19] = system: K562-K562/DOX cells (Pgp negative and Pgp positive); assay: Drug accumulation assay, amonafide retention in K562 and K562/DOX; format: cell-based, human
Method: Functional expression analyses of Pgp were performed on a BD FACSCalibur flow cytometer (Franklin Lakes, N.J.). […] Data analysis was performed using the Dako Cytomation Summit software, version 4.0 (Fort Collins, Colo.). […] Differential Pgp staining of anti-Pgp treated cells was compared to that of control cells counted with the same number of gated events. All test samples were compared to their respective controls using Kolmogorov-Smirnov (KS) non-parametric statistics and expressed as D-values ranging from 0 to 1. These analyses were performed using the NCSS 2007 software (Kaysville, Utah). This approach addresses the maximum difference between two empirical distribution functions.

[20] = system: HL60/ADR, a cell line selected for resistance to adriamycin (MRP-1); assay: WST-1 cell proliferation assay, HL60/ADR
Method: The HL60/ADR resistant cell line has been characterized with over-expression of the multidrug resistant protein (MRP-1).
as §6

Pgp, MRP-1 or BCRP [21] = assay: Resistance Modifying Factors in three pairs of parental and resistant cell lines; format: cell-based, human; settings: IC50 resistant without modulator / with modulator
Method: The Resistance Modifying Factors were calculated as IC50 of the resistant cell line in the absence of modulator/IC50 of the resistant cell line in the presence of modulator.

Pgp [22] = target: T1, Pgp (Homo sapiens, UniProt P08183); settings: digoxin + test compound
Description: as §7
(§9) Both the Caco-2 and MDR1-MDCK cells were used for this model.

Pgp [23] = target: T1, Pgp
Description: as §9

T1 sequence (P08183 whole entry): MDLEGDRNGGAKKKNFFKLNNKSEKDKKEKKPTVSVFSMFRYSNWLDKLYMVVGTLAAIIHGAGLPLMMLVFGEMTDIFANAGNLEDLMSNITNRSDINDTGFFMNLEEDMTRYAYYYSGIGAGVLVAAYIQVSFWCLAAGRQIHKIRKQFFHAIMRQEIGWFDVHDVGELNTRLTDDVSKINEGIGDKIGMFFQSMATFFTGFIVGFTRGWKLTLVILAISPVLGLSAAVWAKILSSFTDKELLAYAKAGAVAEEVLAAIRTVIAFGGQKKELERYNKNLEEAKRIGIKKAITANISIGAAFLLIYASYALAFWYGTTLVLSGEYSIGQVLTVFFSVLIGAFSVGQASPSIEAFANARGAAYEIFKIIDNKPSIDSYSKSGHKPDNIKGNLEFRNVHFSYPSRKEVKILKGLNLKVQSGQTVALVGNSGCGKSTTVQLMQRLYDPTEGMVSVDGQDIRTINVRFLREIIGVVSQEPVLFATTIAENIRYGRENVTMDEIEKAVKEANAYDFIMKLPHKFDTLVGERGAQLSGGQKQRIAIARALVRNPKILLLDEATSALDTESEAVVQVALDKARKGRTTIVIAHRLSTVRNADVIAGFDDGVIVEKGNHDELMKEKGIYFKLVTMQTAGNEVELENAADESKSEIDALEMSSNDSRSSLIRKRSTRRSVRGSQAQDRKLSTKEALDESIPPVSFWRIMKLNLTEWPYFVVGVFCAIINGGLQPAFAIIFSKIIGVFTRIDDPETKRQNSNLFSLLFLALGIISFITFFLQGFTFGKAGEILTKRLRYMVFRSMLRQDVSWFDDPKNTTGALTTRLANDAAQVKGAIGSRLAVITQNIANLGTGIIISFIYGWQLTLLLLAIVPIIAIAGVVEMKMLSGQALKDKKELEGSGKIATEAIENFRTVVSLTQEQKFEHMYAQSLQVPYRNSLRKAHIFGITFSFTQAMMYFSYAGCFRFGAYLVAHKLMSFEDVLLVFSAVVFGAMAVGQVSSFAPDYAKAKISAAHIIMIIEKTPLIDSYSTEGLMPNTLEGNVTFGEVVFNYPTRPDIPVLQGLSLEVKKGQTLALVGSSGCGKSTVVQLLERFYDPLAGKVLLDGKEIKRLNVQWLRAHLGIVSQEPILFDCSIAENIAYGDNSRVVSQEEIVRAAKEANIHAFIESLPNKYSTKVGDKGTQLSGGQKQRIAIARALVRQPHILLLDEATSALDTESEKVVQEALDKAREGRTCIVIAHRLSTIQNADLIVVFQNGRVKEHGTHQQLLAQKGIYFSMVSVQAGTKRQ
Method for MDR1-MDCK cells (P-gp): as §7, §8

## CN(C)CCN1C(=O)c2cccc3cc(N)cc(c23)C1=O [Amonafide, amonafide]
Pgp, MRP-1 or BCRP [1]
  substrate status from Resistance Ratios: not a substrate for Pgp, MRP-1 or BCRP
[2]
  Amonafide uptake and efflux in presence of Pgp inhibitor PSC833: did not significantly change
[3]
  potency in resistant vs non-resistant cell line: equipotent in both cell lines
[4]
  drug efflux in relation to clinical response (CR vs non-CR): no significant difference
[5]
  Amonafide uptake and efflux in presence of BCRP inhibitor FTC: did not significantly change
[6]; T8, experiment (1)
  IC50: 5.18 µM
[6]; T8, experiment (2)
  IC50: 4.87 µM
[6]; T8, experiment (3)
  IC50: 5.83 µM
[6]; read-out: IC50 (average), T8, average
  IC50: 5.29 µM
Caco-2 cell monolayers [7]
  efflux/influx ratio, Caco-2, Drug alone: 0.9
Caco-2 cell monolayers [8]; Caco-2
  effect of addition of CSA on efflux: did not have any effect
Caco-2 cell monolayers [8]; high efflux if ratio ≧3.0 and Papp(B-A) ≧1.0×10^−6 cm/s
  efflux classification: not having significant efflux
[9]
  IC50: 6.98 µM
[10]
  Amonafide uptake and efflux in presence of MRP-1 inhibitor MK571: did not significantly change
[11]; 8226/MR20 ± Fumitremorgin C
  cytotoxicity in presence of BCRP inhibitor Fumitremorgin C: unaffected
[11]; 8226 vs 8226/MR20
  potency in both cell lines: equipotent in both cell lines
P-gp [12]
  efflux ratio at 120 min, 5 μM: 2.2 ± 0.8
[13]
  amonafide accumulation: increases with increasing amonafide dose
[14]; IGROV-1, IGROV1, average, read-out: IC50 (average)
  IC50: 2.93 µM
[14]; IGROV-1, IGROV1, experiment (1), read-out: IC50
  IC50: 2.54 µM
[14]; IGROV-1, IGROV1, experiment (2), read-out: IC50
  IC50: 3.73 µM
[14]; IGROV-1, IGROV1, experiment (3), read-out: IC50
  IC50: 2.53 µM
P-gp [15]; Caco-2
  Papp B→A at 120 min, 5 μM: 26.8 ×10⁻⁶ cm/s
P-gp [15]; Caco-2, efflux/influx ratio, Caco-2, +CSA
  efflux ratio at 120 min, 5 μM: 1.1 ± 0.4
P-gp [15]; Caco-2, efflux/influx ratio, Caco-2, Drug alone
  efflux ratio at 120 min, 5 μM: 0.9 ± 0.2
P-gp [15]; Caco-2, ratio of Papp(B-A)/Papp(A-B)
  efflux ratio at 120 min, 5 μM: 1
[16]
  potency in resistant vs non-resistant cell line: equipotent in both cell lines
[17]
  potency in resistant vs non-resistant cell line: equipotent in both cell lines
[18]; HL60/MDR vs HL60
  Fold Change in IC50: 0.29
[18]; HL60/VCR ± PSC833
  cytotoxicity in presence of Pgp inhibitor PSC833: unaffected
[18]; HL60 vs HL60/VCR
  potency in both cell lines: equipotent in both cell lines
[18]; Homo sapiens, HL60/VCR, read-out: IC50 HL60/MDR
  IC50: 2.04 µM
[19]; K562 vs K562/DOX
  Amonafide uptake and efflux, comparison of the two cell lines: not significantly different between the two cell lines
[19]; each cell line ± PKC412
  amonafide content in presence of Pgp inhibitor PKC412: did not significantly change
[20]; HL60/ADR ± MK571
  cytotoxicity in presence of MRP1 inhibitor MK571: unaffected
[20]; HL60 vs HL60/ADR
  potency in both cell lines: equipotent in both cell lines
MDR1-MDCK cells (P-gp); +CSA
  efflux/influx ratio, MDR1-MDCK, +CSA: 1.2 ± 0.8
MDR1-MDCK cells (P-gp); Drug alone
  efflux/influx ratio, MDR1-MDCK, Drug alone: 2.2
MDR1-MDCK cells (P-gp); MDR1-MDCK
  effect of addition of CSA on efflux: did not have any effect
MDR1-MDCK cells (P-gp); conclusion from Caco-2 and MDR1-MDCK studies
  Pgp substrate / inhibitor status (conclusion): neither a substrate nor an inhibitor of Pgp
Pgp, MRP-1 or BCRP [21]
  substrate status from Resistance Modifying Factors: not a substrate for Pgp, MRP-1 or BCRP
Pgp [22]
  % Inhib. of control, digoxin efflux, MDR1-MDCK: 10%
Pgp [23]; Caco-2
  effect on digoxin efflux: no effect
Pgp [23]; digoxin + test compound
  % Inhib. of control, digoxin efflux, Caco-2: 0%
